Results: the NIST ThermoML archive (doi:10.1016/j.jct.2008.01.009)
± gives the expanded uncertainty stated by the source.

Experiment: molar heat capacity at saturation pressure

C1=Cc2ccccc2CC1 [1,2-dihydronaphthalene]
Conditions	molar heat capacity [J/K/mol]
5.476 K, Crystal 3, Vacuum adiabatic calorimetry	0.37 ± 0.02
6.388 K, Crystal 3, Vacuum adiabatic calorimetry	0.64 ± 0.02
7.291 K, Crystal 3, Vacuum adiabatic calorimetry	0.989 ± 0.02
8.25 K, Crystal 3, Vacuum adiabatic calorimetry	1.48 ± 0.02
9.249 K, Crystal 3, Vacuum adiabatic calorimetry	2.12 ± 0.03
10.3 K, Crystal 3, Vacuum adiabatic calorimetry	2.94 ± 0.03
11.47 K, Crystal 3, Vacuum adiabatic calorimetry	3.91 ± 0.04
12.77 K, Crystal 3, Vacuum adiabatic calorimetry	5.18 ± 0.05
14.21 K, Crystal 3, Vacuum adiabatic calorimetry	6.67 ± 0.06
15.81 K, Crystal 3, Vacuum adiabatic calorimetry	8.431 ± 0.07
17.59 K, Crystal 3, Vacuum adiabatic calorimetry	10.49 ± 0.07
19.57 K, Crystal 3, Vacuum adiabatic calorimetry	12.77 ± 0.083
21.76 K, Crystal 3, Vacuum adiabatic calorimetry	15.28 ± 0.091
24.19 K, Crystal 3, Vacuum adiabatic calorimetry	18 ± 0.1
26.87 K, Crystal 3, Vacuum adiabatic calorimetry	20.93 ± 0.1
29.83 K, Crystal 3, Vacuum adiabatic calorimetry	23.95 ± 0.091
33.12 K, Crystal 3, Vacuum adiabatic calorimetry	27.11 ± 0.1
36.82 K, Crystal 3, Vacuum adiabatic calorimetry	30.48 ± 0.1
40.93 K, Crystal 3, Vacuum adiabatic calorimetry	33.95 ± 0.11
45.51 K, Crystal 3, Vacuum adiabatic calorimetry	37.56 ± 0.12
50.62 K, Crystal 3, Vacuum adiabatic calorimetry	41.31 ± 0.12
55.37 K, Crystal 3, Vacuum adiabatic calorimetry	44.29 ± 0.13
56.32 K, Crystal 3, Vacuum adiabatic calorimetry	44.86 ± 0.13
60.82 K, Crystal 3, Vacuum adiabatic calorimetry	47.66 ± 0.13
66.99 K, Crystal 3, Vacuum adiabatic calorimetry	51.14 ± 0.14
73.79 K, Crystal 3, Vacuum adiabatic calorimetry	54.73 ± 0.15
81.31 K, Crystal 3, Vacuum adiabatic calorimetry	58.53 ± 0.16
89.62 K, Crystal 3, Vacuum adiabatic calorimetry	62.62 ± 0.17
92.5 K, Crystal 3, Vacuum adiabatic calorimetry	64 ± 0.27
98.63 K, Crystal 3, Vacuum adiabatic calorimetry	66.92 ± 0.27
101.72 K, Crystal 3, Vacuum adiabatic calorimetry	68.45 ± 0.27
108.13 K, Crystal 3, Vacuum adiabatic calorimetry	71.57 ± 0.27
111.45 K, Crystal 3, Vacuum adiabatic calorimetry	73.19 ± 0.27
116.48 K, Crystal 3, Vacuum adiabatic calorimetry	75.72 ± 0.27
121.2 K, Crystal 3, Vacuum adiabatic calorimetry	78.05 ± 0.27
122.5 K, Crystal 3, Vacuum adiabatic calorimetry	78.89 ± 0.28
127.59 K, Crystal 3, Vacuum adiabatic calorimetry	81.65 ± 0.28
129.07 K, Crystal 3, Vacuum adiabatic calorimetry	82.45 ± 0.28
132.84 K, Crystal 3, Vacuum adiabatic calorimetry	84.88 ± 0.28
138.14 K, Crystal 3, Vacuum adiabatic calorimetry	89.05 ± 0.29
143.36 K, Crystal 3, Vacuum adiabatic calorimetry	92.96 ± 0.29
148.64 K, Crystal 2	97.43 ± 0.6
153.85 K, Crystal 2	100.66 ± 0.6
159.03 K, Crystal 2	103.99 ± 0.61
164.19 K, Crystal 2	106.64 ± 0.61
169.6 K, Crystal 2	109.63 ± 0.61
171.24 K, Crystal 2	110.54 ± 0.62
175.29 K, Crystal 2	112.56 ± 0.62
178.78 K, Crystal 2	114.67 ± 0.63
180.37 K, Crystal 2	115.57 ± 0.63
180.88 K, Crystal 2	115.84 ± 0.63
186.07 K, Crystal 2	118.77 ± 0.64
186.76 K, Crystal 2	119.11 ± 0.64
187.6 K, Crystal 2	120.08 ± 0.64
192.71 K, Crystal 2	124.28 ± 0.65
192.99 K, Crystal 2	123.59 ± 0.65
197.84 K, Crystal 1, Small (less than 1 g) adiabatic calorimetry	128.42 ± 0.71
199.44 K, Crystal 1, Small (less than 1 g) adiabatic calorimetry	129.23 ± 0.71
202.96 K, Crystal 1, Small (less than 1 g) adiabatic calorimetry	130.85 ± 0.72
206.23 K, Crystal 1, Small (less than 1 g) adiabatic calorimetry	132.6 ± 0.73
208.77 K, Crystal 1, Small (less than 1 g) adiabatic calorimetry	134.08 ± 0.74
213.6 K, Crystal 1, Small (less than 1 g) adiabatic calorimetry	137.01 ± 0.75
215.96 K, Crystal 1, Small (less than 1 g) adiabatic calorimetry	138.43 ± 0.76
219.37 K, Crystal 1, Small (less than 1 g) adiabatic calorimetry	140.75 ± 0.77
230.97 K, Crystal 1, Small (less than 1 g) adiabatic calorimetry	148.65 ± 0.8
238.26 K, Crystal 1, Small (less than 1 g) adiabatic calorimetry	153.96 ± 0.81
243.92 K, Crystal 1, Small (less than 1 g) adiabatic calorimetry	158.36 ± 0.83
252.96 K, Crystal 1, Small (less than 1 g) adiabatic calorimetry	166.39 ± 0.86
255.1 K, Crystal 1, Small (less than 1 g) adiabatic calorimetry	168.26 ± 0.87

Liquid, Small (less than 1 g) adiabatic calorimetry
Conditions	molar heat capacity [J/K/mol]
271.21 K	199.33 ± 1
272.18 K	199.68 ± 1
272.24 K	199.7 ± 1
280.33 K	202.71 ± 1
288.36 K	205.77 ± 1
291.65 K	207.11 ± 1
303.09 K	211.59 ± 1
318.19 K	217.77 ± 1.1
333.27 K	224.04 ± 1.1
348.76 K	230.58 ± 1.1
364.66 K	237.34 ± 1.1
380.18 K	243.96 ± 1.2
395.44 K	250.46 ± 1.2
